Blank lines part the entries; values can stand above or below the compound they belong to.
Legend:
[1] = target: HDAC1-HaloTag in HEK293T cells (Homo sapiens, UniProt Q13547); experiment: Cellular TR-FRET target engagement assay, HDAC1-HaloTag in HEK293T cells; format: cell-based; conditions: HEK-293T, read-out: Cellular TR-FRET assay SAHA-NCT 1 μM EC50 column: % @ 100
BRD4(BD1) = target: T1, BRD4(BD1) (Homo sapiens, UniProt O60885); experiment: TR-FRET saturation binding of JQ1-FITC, BRD4(BD1); conditions: 0.5 nM GST-BRD4(BD1), 2 nM CoraFluor-1-labeled anti-GST VHH; read-out: KD,app BRD4(BD1)
T1 construct: validated for its applicability with individual recombinant bromodomains BRD4(BD1) and BRD4(BD2); purchased BPS Biosciences, Inc 31040
Experimental: (§1) TR-FRET measurements: unless otherwise noted, experiments were performed in white, 384-well microtiter plates (Corning 3572) in 30 μL assay volume. […] The 490/10 and 520/10 emission channels were acquired with a 50% mirror and a dichroic 510 mirror, respectively, using independently optimized detector gain settings unless specified otherwise. The TR-FRET ratio was taken as the 520/490 nm intensity ratio on a per-well basis.
(§2) Determination of apparent equilibrium dissociation constant (KD,app) of JQ1-FITC toward individual recombinant bromodomains and endogenous BRD4 in MCF7 lysate: recombinant BRD4(BD1) and BRD4(BD2) were purchased from BPS Biosciences, Inc and Epicypher, Inc (GST-BRD4(BD1), 31040; GST-BRD4(BD2), 15-0013, respectively). Recombinant bromodomains were diluted to 0.5 nM in assay buffer (25 mM HEPES, 150 mM NaCl, 0.5 mg/mL BSA, 0.005% TWEEN-20, pH 7.5) with 2 nM CoraFluor-1-labeled anti-GST VHH, then JQ1-FITC was added in serial dilution (1:1.6 titration, 15-point, cmax=100 nM) using a D300 digital dispenser (Hewlett-Packard) and allowed to equilibrate for 2 h at room temperature before TR-FRET measurements were taken. Nonspecific signal was determined with 50 μM JQ1-Acid, and data were fitted to a One Site—Specific Binding model in Prism 9.

BRD4(BD2) = target: T2, BRD4(BD2) (Homo sapiens, UniProt O60885); experiment: TR-FRET saturation binding of JQ1-FITC, BRD4(BD2); conditions: 0.5 nM GST-BRD4(BD2), 2 nM CoraFluor-1-labeled anti-GST VHH; read-out: KD,app BRD4(BD2)
T2 construct: validated for its applicability with individual recombinant bromodomains BRD4(BD1) and BRD4(BD2); purchased Epicypher, Inc 15-0013
Experimental: as §1, §2

[2] = test system: HsmPheRS (human mitochondrial PheRS); experiment: TR-FRET titration of tracer MAT588, HsmPheRS; format: binding
[3] = target: T3, HsmPheRS (human mitochondrial PheRS) (Homo sapiens, UniProt O95363); experiment: TR-FRET titration of tracer MAT588, HsmPheRS; format: binding; conditions: absence of substrates, titrating
T3 construct: rows headed: HsmPheRS KD; other: absence of substrates, titrating; human mitochondrial PheRS (HisHalo-HsmPheRS); fused on or other part: C-terminal HaloTag, HRV-3C site and His9 tag; the CoraFluor-1 terbium donor is attached through the HaloTag or by direct Pfp labelling
T3 sequence (O95363 42-357 limits assumed): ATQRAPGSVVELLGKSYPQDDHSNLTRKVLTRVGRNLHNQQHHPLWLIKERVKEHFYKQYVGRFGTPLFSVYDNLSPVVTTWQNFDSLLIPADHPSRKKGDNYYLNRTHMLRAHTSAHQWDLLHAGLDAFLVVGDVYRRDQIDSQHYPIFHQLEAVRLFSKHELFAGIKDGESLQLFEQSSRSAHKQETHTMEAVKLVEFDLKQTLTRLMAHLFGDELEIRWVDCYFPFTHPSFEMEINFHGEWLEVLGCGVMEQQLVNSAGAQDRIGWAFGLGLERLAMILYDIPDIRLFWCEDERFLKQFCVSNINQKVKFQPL

[4] = target: T4, HscPheRS (human cytoplasmic PheRS) (Homo sapiens, UniProt Q9Y285); experiment: TR-FRET titration of tracer MAT588, HscPheRS; format: binding; conditions: absence of substrates
T4 construct: HisHalo-HscPheRS; alpha subunit residues 1-508; beta subunit residues 1-589; made in house; host or cells: E. coli
T4 sequence (Q9Y285 1-508): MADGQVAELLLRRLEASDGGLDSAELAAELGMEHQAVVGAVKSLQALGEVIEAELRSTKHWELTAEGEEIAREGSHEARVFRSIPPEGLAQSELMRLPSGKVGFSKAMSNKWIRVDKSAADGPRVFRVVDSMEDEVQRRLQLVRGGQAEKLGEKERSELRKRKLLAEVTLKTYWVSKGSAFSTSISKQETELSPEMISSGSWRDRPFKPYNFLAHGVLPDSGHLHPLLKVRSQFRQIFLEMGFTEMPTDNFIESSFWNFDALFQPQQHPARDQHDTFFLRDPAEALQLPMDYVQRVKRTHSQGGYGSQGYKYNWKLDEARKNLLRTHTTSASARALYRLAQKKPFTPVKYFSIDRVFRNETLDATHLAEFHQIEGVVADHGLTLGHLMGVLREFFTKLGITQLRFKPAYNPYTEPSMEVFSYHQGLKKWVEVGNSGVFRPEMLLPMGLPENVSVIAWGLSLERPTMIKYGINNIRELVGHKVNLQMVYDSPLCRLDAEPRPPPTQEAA
T4 sequence (Q9NSD9 1-589 partner): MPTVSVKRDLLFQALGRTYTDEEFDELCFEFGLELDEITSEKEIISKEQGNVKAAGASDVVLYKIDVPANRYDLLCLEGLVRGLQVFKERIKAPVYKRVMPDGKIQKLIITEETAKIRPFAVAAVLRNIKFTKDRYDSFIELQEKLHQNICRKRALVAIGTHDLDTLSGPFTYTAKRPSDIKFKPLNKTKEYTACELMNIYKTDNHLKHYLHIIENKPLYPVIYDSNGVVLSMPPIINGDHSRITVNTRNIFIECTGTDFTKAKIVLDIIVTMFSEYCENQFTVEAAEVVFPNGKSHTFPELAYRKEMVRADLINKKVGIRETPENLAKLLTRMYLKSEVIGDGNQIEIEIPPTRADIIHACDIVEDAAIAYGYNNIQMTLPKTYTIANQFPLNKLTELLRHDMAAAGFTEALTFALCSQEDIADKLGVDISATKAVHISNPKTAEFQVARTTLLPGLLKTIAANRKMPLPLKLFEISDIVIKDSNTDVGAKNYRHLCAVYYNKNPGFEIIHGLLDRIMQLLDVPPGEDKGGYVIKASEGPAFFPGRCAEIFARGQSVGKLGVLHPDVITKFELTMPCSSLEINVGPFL

HDAC1 Recombinant [5] = target: T5, HDAC1 Recombinant (Homo sapiens, UniProt Q13547); experiment: HDAC1 enzymatic activity assay with recombinant protein; format: biochemical; conditions: 5 nM HDAC1, 18 μM MAZ1600 substrate (3 × KM), 3 h incubation
T5 construct: purchased BPS Bioscience Inc 50051
T5 sequence (Q13547 whole entry): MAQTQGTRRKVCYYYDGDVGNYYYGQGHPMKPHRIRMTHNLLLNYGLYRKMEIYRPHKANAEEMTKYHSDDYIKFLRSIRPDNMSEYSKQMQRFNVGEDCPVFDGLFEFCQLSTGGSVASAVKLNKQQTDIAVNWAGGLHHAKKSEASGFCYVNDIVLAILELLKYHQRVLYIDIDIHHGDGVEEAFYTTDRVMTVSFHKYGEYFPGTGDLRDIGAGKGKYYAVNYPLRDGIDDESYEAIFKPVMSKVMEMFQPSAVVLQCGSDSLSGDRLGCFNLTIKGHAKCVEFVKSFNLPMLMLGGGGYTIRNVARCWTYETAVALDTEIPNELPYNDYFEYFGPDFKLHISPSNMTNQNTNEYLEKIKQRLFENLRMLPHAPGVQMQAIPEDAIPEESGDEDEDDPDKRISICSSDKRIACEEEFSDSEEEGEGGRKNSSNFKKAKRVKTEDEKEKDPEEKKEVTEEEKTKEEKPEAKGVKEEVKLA

HDAC1 Recombinant [6] = target: T5, HDAC1 Recombinant; experiment: TR-FRET assay with recombinant HDAC1; format: binding; conditions: 5 nM HDAC1, 2.5 nM Tb-Anti-6xHis IgG, 20 nM SAHA-NCT, 3 h
HDAC1-HaloTag = HDAC1-HaloTag (Homo sapiens, UniProt Q13547)
HDAC1-HaloTag, sequence (Q13547 whole entry): as above

HDAC1-HaloTag in HEK293T cells, sequence (Q13547 whole entry): as above

Structure (SMILES): CC(=O)Nc1ccc(C(=O)Nc2ccccc2N)cc1 [CI-994]
- inhibition at 100 µM [1]: < 5%

- Kd (BRD4(BD1)): 6.5 ± 1.1 nM
- Kd (BRD4(BD2)): 5.8 ± 1.5 nM
Structure (SMILES): Cc1sc2c(c1C)C(c1ccc(Cl)cc1)=NC(CC(=O)NCCCOCCOCCOCCCNC(=S)Nc1ccc(-c3c4ccc(=O)cc-4oc4cc(O)ccc34)c(C(=O)O)c1)c1nnc(C)n1-2 (stereo not shown) [JQ1-FITC, 5-(3-(1-(4-(4-chlorophenyl)-2,3,9-trimethyl-6H-thieno[3,2-f][1,2,4]triazolo[4,3-a][1,4]diazepin-6-yl)-2-oxo-7,10,13-trioxa-3-azahexadecan-16-y)thioureido)-2-(6-hydroxy-3-oxo-3H-xanthen-9-yl)benzoic acid]

Structure (SMILES): Nc1ncnc2c1ncn2[C@@H]1O[C@H](CN(CCCCCCOCCOCCNC(=O)c2ccc(C(=O)O)c(-c3c4ccc(=O)cc-4oc4cc(O)ccc34)c2)S(=O)(=O)NC(=O)[C@@H](N)Cc2ccccc2)[C@@H](O)[C@H]1O [MAT588, 4-((2-(2-((6-((N-(L-phenylalanyl)sulfamoyl)(((2R,3S,4R,5R)-5-(6-amino-9H-purin-9-yl)-3,4-dihydroxytetrahydrofuran-2-yl)methyl)amino)hexyl)oxy)ethoxy)ethyl)carbamoyl)-2-(6-hydroxy-3-oxo-3H-xanthen-9-yl)benzoic acid]
- selectivity for HsmPheRS over HscPheRS [2]: > 1,000 fold
- Kd [3]: < 10 nM
- Kd [4]: > 10000 nM

- IC50 (HDAC1 Recombinant [5]): 8 nM
- Kd (HDAC1 Recombinant [5]): 2 nM
- Kd (HDAC1 Recombinant [6]): 9 nM
- Kd (HDAC1-HaloTag): 9 nM
Structure (SMILES): O=C(CCCCCCC(=O)Nc1ccc(CNC(=O)c2ccc(C(=O)O)c(C3=c4cc5c6c(c4Oc4c3cc3c7c4CCCN7CCCC3)CCC[N+]=6CCCC5)c2)cc1)NO [SAHA-NCT]
